As usually defined, the IC50 is the midpoint of a concentration-inhibition curve.

The target of experiment [1] is T1, GPR43 (Homo sapiens, UniProt O15552).
T1 construct: expressed in transfected cells
T1 sequence (O15552 1-330): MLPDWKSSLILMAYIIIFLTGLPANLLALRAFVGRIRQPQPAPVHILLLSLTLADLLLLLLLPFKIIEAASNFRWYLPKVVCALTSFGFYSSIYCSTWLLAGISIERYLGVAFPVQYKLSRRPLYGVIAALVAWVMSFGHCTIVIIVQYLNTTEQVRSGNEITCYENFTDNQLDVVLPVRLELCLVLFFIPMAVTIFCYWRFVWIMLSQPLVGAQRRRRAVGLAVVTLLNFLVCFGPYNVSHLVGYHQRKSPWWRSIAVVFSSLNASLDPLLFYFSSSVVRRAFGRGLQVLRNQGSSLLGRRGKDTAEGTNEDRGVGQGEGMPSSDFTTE
In words: Calcium mobilization assay without probenecid. In kind it is cell-based. The conditions noted are these: GPR43 stably expressing cells, triggered with sodium acetate at EC80, read-out: GPR43 assay without probenicid IC50. The protocol:
The following assay can be used for determination of GPR43 activation. The assay measures intracellular calcium release induced by activation of GPR43. On day 1, GPR43 stably expressing cells were detached with mild trypsinization (Trypsin, 0.25% with EDTA 4Na, 5× diluted in PBS) centrifuged at 1000 rpm for 5 min and resuspended at 6.000 cells/25 μL medium (DMEM supplemented with 10% FBS, 10 μg/mL puromycin and 1% Pen/Strep). The cells were distributed in poly-D-lysine coated 384 well plates (black with clear bottom, 25 μL/well) and incubated overnight at 37° C. 10% CO2. On day 2, 25 μL of a fluorescent Ca^2+ indicator (Calcium 4 assay; Molecular Devices) was added on top of the cells and incubated for 2 h at 37° C. Subsequently, compounds at increasing concentration (10 μL/well) were added to the plate and incubated for 15 min at 37° C. Finally the cells were triggered with sodium acetate at EC80 concentration (concentration which gives 80% of the activity of the GPR43) and the Ca-flux was measured simultaneously to the trigger injection on a fluorescence plate reader (FlexStation3), this measures the antagonist activity of the compounds. To measure agonist activity of the compounds, compound was added to the well and the Ca-flux was measured simultaneously to the injection of compound.

The target in experiment [2] is T1, GPR43. In words: Calcium mobilization assay with probenecid. In kind it is cell-based. The conditions noted are these: GPR43 stably expressing cells; triggered with sodium acetate at EC80; 2.5 mM probenecid; read-out: GPR43 assay with probenicid IC50. The method, boiled down: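 Cells stably expressing GPR43 plated overnight at 37 °C, then loaded 2 h with Calcium 4 dye plus 2.5 mM probenecid. […]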
In general terms: A change in cytosolic calcium serves as a functional read-out for many receptors and channels.

Some results are limits rather than exact numbers.

As to `CC1(C(=O)NCc2ccc(Cl)cc2)CCN1C(=O)Cc1ccc(Cl)cc1Cl` (centres unmarked) [Compound 1, 1-[2-(2,4-Dichloro-phenyl)-acetyl]-2-methyl-azetidine-2-carboxylic acid 4-chloro-benzylamide], the IC50 on GPR43 [1] lay within 0.101 to 0.5 µM.

Turning to `Cc1cc(C)cc(CC(=O)N2CCC2(C)C(=O)N(C)Cc2ccc(Cl)cc2)c1` (centres unmarked) [Compound 3, 1-[2-(3,5-Dimethyl-phenyl)-acetyl]-2-methyl-azetidine-2-carboxylic acid (4-chloro-benzyl)-methyl-amide], the IC50 at GPR43 [1] is greater than 1 µM.

For `CN(Cc1ccc(Cl)cc1)C(=O)C1(C)CCN1C(=O)Cc1cccc(I)c1` (centres unmarked) [Compound 8, 1-[2-(3-iodo-phenyl)-acetyl]-2-methyl-azetidine-2-carboxylic acid (4-chloro-benzyl)-methyl-amide], the IC50 at GPR43 [1] is 0.501 to 1 µM.

Consider `CN(Cc1ccc(Cl)cc1)C(=O)C1(C)CCN1C(=O)Cc1csc2ccccc12` (centres unmarked) [Compound 13, 1-(2-Benzo[b]thiophen-3-yl-acetyl)-2-methyl-azetidine-2-carboxylic acid (4-chloro-benzyl)-methyl-amide], for which the IC50 at GPR43 [1] fell in the range of 0.101 to 0.5 µM.

As to `CN(Cc1ccc(Cl)cc1)C(=O)C1(C)CCN1C(=O)Cc1ccc2ccccc2c1` (centres unmarked) [Compound 14, 2-Methyl-1-(2-naphthalen-2-yl-acetyl)-azetidine-2-carboxylic acid (4-chloro-benzyl)-methyl-amide], the IC50 on GPR43 [1] fell in the range of 0.501 to 1 µM.

On to `Cc1cc(C)cc(CC(=O)N2CCC2(C)C(=O)N(CCO)Cc2ccc(Cl)cc2)c1` (centres unmarked) [Compound 47, 1-[2-(3,5-Dimethyl-phenyl)-acetyl]-2-methyl-azetidine-2-carboxylic acid (4-chloro-benzyl)-(2-hydroxy-ethyl)-amide], for which the IC50 at GPR43 [1] is 0.101 to 0.5 µM.

Regarding `COC(=O)CCN(Cc1ccc(Cl)cc1)C(=O)C1(C)CCN1C(=O)Cc1cc(C)cc(C)c1` (centres unmarked) [Compound 62, 3-((4-Chloro-benzyl)-{1-[2-(3,5-dimethyl-phenyl)-acetyl]-2-methyl-azetidine-2-carbonyl}-amino)-propionic acid methyl ester], the IC50 on GPR43 [1] lay in the range of 0.501 to 1 µM.

Turning to `Cc1cc(C)cc(CC(=O)N2CCC2(C)C(=O)N(CCCC(=O)O)Cc2ccc(Cl)cc2)c1` (centres unmarked) [Compound 64, 4-((4-Chloro-benzyl)-{1-[2-(3,5-dimethyl-phenyl)-acetyl]-2-methyl-azetidine-2-carbonyl}-amino)-butyric acid], on GPR43 [1], the IC50 lay in the range of 0.101 to 0.5 µM.

Turning to `CC1(C(=O)N(CCCC(=O)O)Cc2ccc(Cl)cc2)CCN1C(=O)Oc1ccc(F)cc1Cl` (centres unmarked) [Compound 239, 4-(1-((2-chloro-4-fluorophenoxy)carbonyl)-N-(4-chlorobenzyl)-2-methylazetidine-2-carboxamido)butanoic acid], on GPR43 [2], the IC50 is greater than 1 µM.

Take `CC1(C(=O)N(CCCC(=O)NS(C)(=O)=O)Cc2ccc(Cl)cc2)CCN1C(=O)c1csc2ccccc12` (centres unmarked) [Compound 240, 1-(benzo[b]thiophene-3-carbonyl)-N-(4-chlorobenzyl)-2-methyl-N-(4-(methylsulfonamido)-4-oxobutyl)azetidine-2-carboxamide]: the IC50 at GPR43 [2] is 0.101 to 0.5 µM.

Take `CS(=O)(=O)NC(=O)CCCN(Cc1cccc(Cl)c1)C(=O)C1(Cc2ccc(F)cc2)CCN1C(=O)c1csc2ccccc12` (centres unmarked) [Compound 241, 1-(benzo[b]thiophene-3-carbonyl)-N-(3-chlorobenzyl)-2-(4-fluorobenzyl)-N-(4-(methylsulfonamido)-4-oxobutyl)azetidine-2-carboxamide]: the IC50 at GPR43 [2] is 0.501 to 1 µM.

In the case of `COc1cccc(CC2(C(=O)N(CCCC(=O)NS(C)(=O)=O)Cc3cccc(Cl)c3)CCN2C(=O)c2csc3ccccc23)c1` (centres unmarked) [Compound 242, 1-(benzo[b]thiophene-3-carbonyl)-N-(3-chlorobenzyl)-2-(3-methoxybenzyl)-N-(4-(methylsulfonamido)-4-oxobutyl)azetidine-2-carboxamide], the IC50 on GPR43 [2] was 0.501 to 1 µM.

`CS(=O)(=O)NC(=O)CCCN(Cc1cccc(Cl)c1)C(=O)C1(Cc2ccccc2F)CCN1C(=O)c1csc2ccccc12` (centres unmarked) [Compound 243, 1-(benzo[b]thiophene-3-carbonyl)-N-(3-chlorobenzyl)-2-(2-fluorobenzyl)-N-(4-(methylsulfonamido)-4-oxobutyl)azetidine-2-carboxamide]: the IC50 at GPR43 [2] was in the range of 0.501 to 1 µM.

Consider `CC[C@]1(C(=O)N(CCCS(N)(=O)=O)[C@@H](C)c2ccc(Cl)cc2)CCN1C(=O)c1csc2ccccc12` [Compound 244, (R)-1-(benzo[b]thiophene-3-carbonyl)-N-((S)-1-(4-chlorophenyl)ethyl)-2-ethyl-N-(3-sulfamoylpropyl)azetidine-2-carboxamide], for which the IC50 at GPR43 [2] is greater than 1 µM.

For `CC[C@@]1(C(=O)N(CCCS(N)(=O)=O)[C@@H](C)c2ccc(Cl)cc2)CCN1C(=O)c1csc2ccccc12` [Compound 245, (S)-1-(benzo[b]thiophene-3-carbonyl)-N-((S)-1-(4-chlorophenyl)ethyl)-2-ethyl-N-(3-sulfamoylpropyl)azetidine-2-carboxamide], the IC50 on GPR43 [2] fell in the range of 0.101 to 0.5 µM.

`CCC1(C(=O)N(CCCS(N)(=O)=O)c2ccc(Cl)cc2)CCN1C(=O)c1csc2ccccc12` (centres unmarked) [Compound 246, 1-(benzo[b]thiophene-3-carbonyl)-N-(4-chlorophenyl)-2-ethyl-N-(3-sulfamoylpropyl)azetidine-2-carboxamide]: the IC50 at GPR43 [2] was 0.101 to 0.5 µM.

Turning to `COc1ccccc1CC1(C(=O)N(CCCC(=O)O)Cc2cccc(Cl)c2)CCN1C(=O)c1csc2ccccc12` (centres unmarked) [Compound 247, 4-(1-(benzo[b]thiophene-3-carbonyl)-N-(3-chlorobenzyl)-2-(2-methoxybenzyl)azetidine-2-carboxamido)butanoic acid], the concentration for half-maximal inhibition (IC50) on GPR43 [2] was greater than 1 µM.

Take `CC1(C(=O)N(CCCC(=O)O)c2cccc(Cl)c2)CCN1C(=O)c1csc2ccccc12` (centres unmarked) [Compound 248, 4-(1-(benzo[b]thiophene-3-carbonyl)-N-(3-chlorophenyl)-2-methylazetidine-2-carboxamido)butanoic acid]: the IC50 on GPR43 [2] lay within 0.101 to 0.5 µM.

In the case of `CC1(C(=O)N(CCCC(=O)O)c2ccc(Cl)nc2)CCN1C(=O)c1csc2ccccc12` (centres unmarked) [Compound 249, 4-(1-(benzo[b]thiophene-3-carbonyl)-N-(6-chloropyridin-3-yl)-2-methylazetidine-2-carboxamido)butanoic acid], the IC50 on GPR43 [2] was greater than 1 µM.

As to `CC1(C(=O)N(CCCC(=O)O)c2ccc(Cl)cn2)CCN1C(=O)c1csc2ccccc12` (centres unmarked) [Compound 250, 4-(1-(benzo[b]thiophene-3-carbonyl)-N-(5-chloropyridin-2-yl)-2-methylazetidine-2-carboxamido)butanoic acid], the IC50 on GPR43 [2] was in the range of 0.501 to 1 µM.

On to `CC1(C(=O)N(CCCC(=O)O)c2cccc(C(F)(F)F)c2)CCN1C(=O)c1csc2ccccc12` (centres unmarked) [Compound 251, 4-(1-(benzo[b]thiophene-3-carbonyl)-2-methyl-N-(3-(trifluoromethyl)phenyl)azetidine-2-carboxamido)butanoic acid], for which the concentration for half-maximal inhibition (IC50) on GPR43 [2] was in the range of 0.101 to 0.5 µM.

`CC1(C(=O)N(CCCC(=O)O)c2cc(Cl)ccn2)CCN1C(=O)c1csc2ccccc12` (centres unmarked) [Compound 252, 4-(1-(benzo[b]thiophene-3-carbonyl)-N-(4-chloropyridin-2-yl)-2-methylazetidine-2-carboxamido)butanoic acid]: the IC50 on GPR43 [2] fell in the range of 0.501 to 1 µM.

For `CC1(C(=O)N(CCCC(=O)O)c2ccccn2)CCN1C(=O)c1csc2ccccc12` (centres unmarked) [Compound 253, 4-(1-(benzo[b]thiophene-3-carbonyl)-2-methyl-N-(pyridin-2-yl)azetidine-2-carboxamido)butanoic acid], the IC50 on GPR43 [2] is greater than 1 µM.
